Experimental data published in PMC11514837 (Toxicological Sciences, 2024).
Like-named read-outs stand apart in the source and are kept apart here.

Tests used:
zebrafish embryos [1] = assay: Zebrafish developmental toxicity screening, wild-type fish; type: in vivo, zebrafish (Danio rerio); details: for concentration up to which not toxic in zebrafish: data not shown; for EC80: nominal concentration causing morphologic malformations in 80% of WT zebrafish
human AHR [2] = target: T1, human AHR (Homo sapiens, UniProt P35869); details: exposures up to 30 μM
T1 sequence (P35869 11-848): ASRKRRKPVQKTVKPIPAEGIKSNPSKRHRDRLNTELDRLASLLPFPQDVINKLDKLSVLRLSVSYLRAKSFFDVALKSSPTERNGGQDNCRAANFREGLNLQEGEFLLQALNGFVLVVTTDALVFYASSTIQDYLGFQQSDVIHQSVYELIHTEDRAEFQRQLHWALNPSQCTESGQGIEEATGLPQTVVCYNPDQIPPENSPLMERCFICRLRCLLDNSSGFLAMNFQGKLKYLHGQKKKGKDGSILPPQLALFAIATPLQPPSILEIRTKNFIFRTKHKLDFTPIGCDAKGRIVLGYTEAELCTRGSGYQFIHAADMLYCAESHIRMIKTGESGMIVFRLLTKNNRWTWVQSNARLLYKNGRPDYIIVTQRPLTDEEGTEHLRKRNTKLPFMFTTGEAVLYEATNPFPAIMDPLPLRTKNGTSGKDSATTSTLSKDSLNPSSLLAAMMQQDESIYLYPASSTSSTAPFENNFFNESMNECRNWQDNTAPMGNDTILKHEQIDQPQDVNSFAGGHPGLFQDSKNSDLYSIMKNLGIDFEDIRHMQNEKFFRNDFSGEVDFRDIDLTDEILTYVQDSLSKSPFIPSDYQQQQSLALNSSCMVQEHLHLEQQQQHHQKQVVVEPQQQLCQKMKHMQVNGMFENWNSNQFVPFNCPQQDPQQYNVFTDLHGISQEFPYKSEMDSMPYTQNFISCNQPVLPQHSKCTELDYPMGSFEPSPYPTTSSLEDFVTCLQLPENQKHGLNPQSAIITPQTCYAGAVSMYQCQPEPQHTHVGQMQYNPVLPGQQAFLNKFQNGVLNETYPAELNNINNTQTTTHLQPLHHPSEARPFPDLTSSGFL

zebrafish Ahr2 = target: T2, zebrafish Ahr2 (Danio rerio, UniProt Q9YGV3); type: cell-based; details: exposures up to 30 μM
T2 sequence (Q9YGV3 1-1027): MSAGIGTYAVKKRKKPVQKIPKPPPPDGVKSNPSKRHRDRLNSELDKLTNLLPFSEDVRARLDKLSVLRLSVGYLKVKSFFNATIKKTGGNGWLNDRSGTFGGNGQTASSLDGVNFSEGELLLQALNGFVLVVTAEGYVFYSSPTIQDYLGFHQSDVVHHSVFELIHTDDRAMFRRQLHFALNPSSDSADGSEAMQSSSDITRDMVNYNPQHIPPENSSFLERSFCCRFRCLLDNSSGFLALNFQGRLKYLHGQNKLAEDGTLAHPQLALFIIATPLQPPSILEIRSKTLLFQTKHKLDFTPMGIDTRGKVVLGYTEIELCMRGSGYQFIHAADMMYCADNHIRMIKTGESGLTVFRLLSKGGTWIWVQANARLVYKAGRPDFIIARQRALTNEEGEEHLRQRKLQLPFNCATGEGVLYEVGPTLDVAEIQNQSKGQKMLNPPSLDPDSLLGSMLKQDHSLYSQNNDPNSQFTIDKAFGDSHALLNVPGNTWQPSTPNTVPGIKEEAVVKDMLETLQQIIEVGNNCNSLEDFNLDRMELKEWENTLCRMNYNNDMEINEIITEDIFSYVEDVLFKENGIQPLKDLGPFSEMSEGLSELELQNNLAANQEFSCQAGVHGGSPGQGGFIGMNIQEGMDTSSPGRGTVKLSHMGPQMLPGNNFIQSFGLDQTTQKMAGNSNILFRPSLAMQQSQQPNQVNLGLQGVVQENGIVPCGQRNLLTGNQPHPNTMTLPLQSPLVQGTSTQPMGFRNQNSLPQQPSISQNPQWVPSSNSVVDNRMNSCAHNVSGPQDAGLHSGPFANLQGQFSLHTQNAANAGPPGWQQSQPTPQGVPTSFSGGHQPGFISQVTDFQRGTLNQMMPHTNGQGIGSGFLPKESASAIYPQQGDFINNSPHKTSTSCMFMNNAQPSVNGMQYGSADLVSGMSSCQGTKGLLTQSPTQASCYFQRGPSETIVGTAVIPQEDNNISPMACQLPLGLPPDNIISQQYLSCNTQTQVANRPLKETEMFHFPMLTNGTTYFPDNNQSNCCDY

[3] = system: cyp1a^cms-gfp zebrafish (EGFP under cyp1a promotor)
Ahr2 = details: ref Billiard et al. 2002; cited from earlier work
zebrafish embryos [4] = assay: Window of susceptibility developmental toxicity exposures; type: in vivo
[5] = Larval metabolite analysis by LC-IM-MS; details: zebrafish exposed to 26 µM retene
[6] = Retene body burden in zebrafish tissue; type: in vivo
[7] = system: Ahr2 knockout (ahr2^hu3335) fish; details: ref Scott et al. 2011; Wilson et al. 2022; cited from earlier work
human AHR [8] = target: T1, human AHR
cyp1a^osu5 zebrafish = type: in vivo; details: TCDD, cyp1a^osu5 fish; unit not given
cyp1a^osu4 zebrafish = type: in vivo; details: TCDD, cyp1a^osu4 fish, 1 h exposure at 6 to 8 hpf
Cyp1b1^wh4 zebrafish = type: in vivo; details: TCDD

SMILES: Cc1cccc2c1ccc1ccccc12 [1-methylphenathrene, 1-methylphenanthrene]
- concentration up to which not toxic in zebrafish (zebrafish embryos [1]): > 100 µM

SMILES: O=C1c2ccccc2C(=O)c2c1ccc1ccccc21 [Benzanthraquinone]
- AHR activation in human HuH-7 luciferase reporter cells (human AHR [2]): direct AHR activators
- Ahr2 activation in zebrafish ZF-4 luciferase reporter cells (zebrafish Ahr2): direct AHR activators

SMILES: c1ccc2c(c1)cc1ccc3cccc4ccc2c1c34 [Benzo[a]pyrene]
- AHR activation in human HuH-7 luciferase reporter cells (human AHR [2]): activator
- Ahr2 activation in zebrafish ZF-4 luciferase reporter cells (zebrafish Ahr2): activator

SMILES: c1ccc2c(c1)-c1cccc3c1c-2cc1ccccc13 [Benzo[b]fluoranthene]
- AHR activation in human HuH-7 luciferase reporter cells (human AHR [2]): direct AHR activators
- concentration up to which not toxic in zebrafish (zebrafish embryos [1]): > 100 µM
- Ahr2 activation in zebrafish ZF-4 luciferase reporter cells (zebrafish Ahr2): direct AHR activators

SMILES: c1ccc2c3c(ccc2c1)-c1cccc2cccc-3c12 [Benzo[j]fluoranthene]
- AHR activation in human HuH-7 luciferase reporter cells (human AHR [2]): direct AHR activators
- EC80 (zebrafish embryos [1]): could not be determined
- Ahr2 activation in zebrafish ZF-4 luciferase reporter cells (zebrafish Ahr2): direct AHR activators

SMILES: c1ccc2cc3c(cc2c1)-c1cccc2cccc-3c12 [Benzo[k]fluoranthene, Benzo(k)fluoranthene]
- AHR activation in human HuH-7 luciferase reporter cells (human AHR [2]): direct AHR activators
- Ahr2 activation in zebrafish ZF-4 luciferase reporter cells (zebrafish Ahr2): direct AHR activators
- EGFP expression at 23 hpf / early hours ([3]; cyp1a^cms-gfp fish, retene 26 μM, benzo[k]fluoranthene 8.9 μM): strong widespread EGFP expression

SMILES: Cc1cccc2c1ccc1cc(C(C)C)ccc12 [Retene, 1-methyl-7-isopropylphenanthrene]
- times less strong at binding Ahr2 than 1-methylphenanthrene (Ahr2): 3 ×
- times less strong at binding Ahr2 than benzo[b]fluoranthene (Ahr2): 73 ×
- AHR activation in human HuH-7 luciferase reporter cells (human AHR [2]): minimal reporter activity
- BMC50 (zebrafish embryos [4]; exposure window 6 to 48 hpf, screened at 120 hpf): 52 ± 4 µM
- developmental toxicity response (zebrafish embryos [4]; exposure window 48 to 120 hpf): little response
- Ahr2 activation in zebrafish ZF-4 luciferase reporter cells (zebrafish Ahr2): no significant activation
- Ahr2 activation in zebrafish ZF-4 luciferase reporter cells (zebrafish Ahr2; listed as retene): do not respond
- EGFP expression at 23 hpf / early hours ([3]; zebrafish, in vivo): control-like EGFP expression
- retene metabolites in tissue extracts at 12 and 24 hpf [5]: No retene metabolites were detected
- increase in body burden from 12 to 24 hpf ([6]; 30 μM retene from 6 hpf): greater than 3 fold
- tissue burden at 48 hpf ([6]; 30 μM retene from 6 hpf): decreased to near-baseline
- 24 hpf body burden ([6]; static exposure to 30 μM retene from 6 hpf): 31 ng/fish
- Ahr2 dependence of toxicity in developing zebrafish [7]: Ahr2 dependent toxicity
- effect of supplementation with human liver s9 on reporter activity (human AHR [8]): did not lead to an increase in reporter activity

SMILES: Clc1cc2c(cc1Cl)Oc1cc(Cl)c(Cl)cc1O2 [TCDD, 2,3,7,8-Tetrachlorodibenzo-p-dioxin]
- BMC (cyp1a^osu5 zebrafish): 0.56 ± 0.13
- BMC50 (cyp1a^osu4 zebrafish): 0.41 ± 0.07 nM
- change in toxicity versus 5D fish (Cyp1b1^wh4 zebrafish): no change in toxicity

SMILES: O=c1c2ccccc2oc2ccccc12 [Xanthone]
- EC80 (zebrafish embryos [1]): 52 µM
